The target of one test is T1, BRM (Homo sapiens, UniProt P51531).
T1 construct: made in house; host or cells: High Five insect cells
In words: ATPase catalytic activity of BRM, ADP-Glo in vitro biochemical assay. The conditions noted are these: for IC50: 30 nM BRM, 400 μM ATP; for Ratio* (BRG1 IC50 (μM) divided by BRM IC50 (μM)): selectivity ratio BRG1 IC50 / BRM IC50. In short, it runs like this:
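Recombinant BRM (30 nM) hydrolysed 400 μM ATP with 20 nM salmon sperm DNA in pH 8 Tris buffer containing 20 mM MgCl2, 50 mM NaCl, 0.1% Tween-20 and 1 mM DTT, 1 h at room temperature. ADP formed was quantified by ADP-Glo luminescence.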
On the technique in general: In ADP-Glo the light output rises with the ADP produced.

Another test concerns the target T2, BRG-1 (Homo sapiens, UniProt P51532).
T2 construct: made in house; host or cells: High Five insect cells
The test can be described thus: ATPase catalytic activity of BRG-1, ADP-Glo in vitro biochemical assay. The conditions noted are these: 30 nM BRG-1, 400 μM ATP, read-out: BRG1 IC50. The method, boiled down:
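BRG-1 ATPase activity was measured by ADP-Glo. Unconsumed ATP was depleted for 40 min at room temperature, then ADP was converted to ATP for 60 min and read as luminescence.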

The mark [1] stands for this setting: ATPase catalytic activity, ADP-Glo.

Like-named read-outs stand apart in the source and are kept apart here.

T2 sequence (P51532 whole entry): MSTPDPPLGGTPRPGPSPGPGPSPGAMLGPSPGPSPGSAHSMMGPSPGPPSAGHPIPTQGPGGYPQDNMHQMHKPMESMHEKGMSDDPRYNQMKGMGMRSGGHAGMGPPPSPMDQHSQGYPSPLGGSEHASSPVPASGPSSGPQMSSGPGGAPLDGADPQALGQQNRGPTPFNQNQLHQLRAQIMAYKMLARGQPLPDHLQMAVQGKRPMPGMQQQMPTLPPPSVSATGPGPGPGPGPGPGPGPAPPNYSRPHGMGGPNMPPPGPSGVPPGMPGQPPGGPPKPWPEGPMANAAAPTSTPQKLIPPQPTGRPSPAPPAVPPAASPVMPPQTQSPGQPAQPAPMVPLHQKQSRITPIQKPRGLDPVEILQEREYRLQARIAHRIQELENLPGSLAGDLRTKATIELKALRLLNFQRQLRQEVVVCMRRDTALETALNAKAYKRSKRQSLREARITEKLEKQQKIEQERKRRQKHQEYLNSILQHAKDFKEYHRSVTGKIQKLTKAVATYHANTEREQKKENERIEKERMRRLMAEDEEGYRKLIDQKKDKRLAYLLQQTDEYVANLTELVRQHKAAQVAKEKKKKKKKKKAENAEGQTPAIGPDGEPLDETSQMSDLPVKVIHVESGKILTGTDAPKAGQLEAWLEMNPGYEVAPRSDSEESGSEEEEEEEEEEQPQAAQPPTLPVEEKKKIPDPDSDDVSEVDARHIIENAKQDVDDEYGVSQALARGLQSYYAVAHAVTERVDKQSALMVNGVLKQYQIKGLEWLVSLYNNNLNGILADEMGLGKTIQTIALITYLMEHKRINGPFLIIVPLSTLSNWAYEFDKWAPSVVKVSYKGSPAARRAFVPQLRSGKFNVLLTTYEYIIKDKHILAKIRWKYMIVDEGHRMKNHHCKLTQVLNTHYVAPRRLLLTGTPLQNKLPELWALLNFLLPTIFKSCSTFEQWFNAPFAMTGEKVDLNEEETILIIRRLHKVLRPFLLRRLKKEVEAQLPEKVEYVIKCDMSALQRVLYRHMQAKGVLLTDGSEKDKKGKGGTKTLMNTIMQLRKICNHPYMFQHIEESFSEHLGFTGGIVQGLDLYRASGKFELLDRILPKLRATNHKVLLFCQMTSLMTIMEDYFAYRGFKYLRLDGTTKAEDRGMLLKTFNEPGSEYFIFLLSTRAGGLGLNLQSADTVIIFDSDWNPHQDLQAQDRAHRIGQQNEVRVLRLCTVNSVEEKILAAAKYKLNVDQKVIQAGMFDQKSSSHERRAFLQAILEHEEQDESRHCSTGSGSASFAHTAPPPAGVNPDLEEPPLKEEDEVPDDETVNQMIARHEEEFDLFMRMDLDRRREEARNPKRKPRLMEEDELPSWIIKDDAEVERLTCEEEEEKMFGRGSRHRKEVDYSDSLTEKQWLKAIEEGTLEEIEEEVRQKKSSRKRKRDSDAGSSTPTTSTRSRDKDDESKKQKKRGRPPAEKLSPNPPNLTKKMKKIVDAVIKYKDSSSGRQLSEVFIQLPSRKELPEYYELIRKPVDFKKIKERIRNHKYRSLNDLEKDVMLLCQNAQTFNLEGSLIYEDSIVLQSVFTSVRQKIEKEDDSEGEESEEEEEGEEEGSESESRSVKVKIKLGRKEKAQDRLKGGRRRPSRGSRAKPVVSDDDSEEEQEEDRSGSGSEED
T1 sequence (P51531 whole entry): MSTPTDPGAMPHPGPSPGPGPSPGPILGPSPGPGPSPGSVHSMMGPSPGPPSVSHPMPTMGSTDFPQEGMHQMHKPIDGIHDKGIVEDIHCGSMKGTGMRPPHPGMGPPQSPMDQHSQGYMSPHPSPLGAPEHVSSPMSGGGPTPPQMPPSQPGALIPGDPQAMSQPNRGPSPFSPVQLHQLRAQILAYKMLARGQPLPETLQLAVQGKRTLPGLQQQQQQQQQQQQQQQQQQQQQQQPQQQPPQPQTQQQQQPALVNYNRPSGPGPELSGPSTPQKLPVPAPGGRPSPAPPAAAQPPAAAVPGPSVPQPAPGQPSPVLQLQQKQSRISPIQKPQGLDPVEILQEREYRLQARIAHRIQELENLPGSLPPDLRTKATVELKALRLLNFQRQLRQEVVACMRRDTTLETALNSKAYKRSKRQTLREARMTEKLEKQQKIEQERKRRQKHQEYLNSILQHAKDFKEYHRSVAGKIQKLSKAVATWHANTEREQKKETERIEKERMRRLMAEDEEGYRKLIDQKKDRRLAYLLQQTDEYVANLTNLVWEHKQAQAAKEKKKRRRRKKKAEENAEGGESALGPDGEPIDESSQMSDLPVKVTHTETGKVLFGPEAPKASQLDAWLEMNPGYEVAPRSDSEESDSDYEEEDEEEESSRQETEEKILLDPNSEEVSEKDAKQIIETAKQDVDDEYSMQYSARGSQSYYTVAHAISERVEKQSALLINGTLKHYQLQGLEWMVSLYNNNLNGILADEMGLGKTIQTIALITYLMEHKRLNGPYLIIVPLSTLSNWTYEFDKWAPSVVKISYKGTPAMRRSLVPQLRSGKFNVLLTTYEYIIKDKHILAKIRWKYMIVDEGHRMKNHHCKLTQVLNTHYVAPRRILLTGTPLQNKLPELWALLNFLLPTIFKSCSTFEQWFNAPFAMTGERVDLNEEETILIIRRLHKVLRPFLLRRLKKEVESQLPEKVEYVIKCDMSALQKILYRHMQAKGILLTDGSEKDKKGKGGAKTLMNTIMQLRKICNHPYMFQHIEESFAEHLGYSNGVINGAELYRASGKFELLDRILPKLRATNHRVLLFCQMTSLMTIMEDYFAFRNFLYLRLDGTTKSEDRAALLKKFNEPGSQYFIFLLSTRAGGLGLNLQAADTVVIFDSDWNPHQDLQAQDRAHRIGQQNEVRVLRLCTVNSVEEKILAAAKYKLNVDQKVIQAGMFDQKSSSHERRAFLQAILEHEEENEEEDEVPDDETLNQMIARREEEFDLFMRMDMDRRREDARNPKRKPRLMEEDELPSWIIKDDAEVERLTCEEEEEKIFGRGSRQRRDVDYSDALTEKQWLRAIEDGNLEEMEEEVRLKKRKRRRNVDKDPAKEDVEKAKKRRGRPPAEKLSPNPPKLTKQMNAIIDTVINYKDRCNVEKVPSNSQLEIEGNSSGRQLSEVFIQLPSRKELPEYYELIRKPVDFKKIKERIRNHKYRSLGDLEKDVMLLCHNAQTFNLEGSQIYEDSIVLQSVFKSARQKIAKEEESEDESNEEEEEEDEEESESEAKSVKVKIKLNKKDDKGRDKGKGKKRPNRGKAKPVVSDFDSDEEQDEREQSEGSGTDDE

As usually defined, the IC50 is the concentration needed to halve the response being measured. Take `CO[C@@H]1CCN(c2cccc(-c3ccc4cnc(CNC(=O)c5ccc6c(c5)S(=O)(=O)CCOC6)cc4n3)n2)C[C@@H]1C` [Compound 438]: the IC50 against BRM (setting [1]) was 0.0318 µM; at BRG-1 (setting [1]), 0.357 µM. The “Ratio*” value at BRM (ratio of BRG1 IC50 to BRM IC50) worked out at 11.23.
The like results for `C[C@@H]1CCN(C)c2nc(-c3ccc4cnc(CNC(=O)c5ccc6c(c5)S(=O)(=O)CCOC6)cc4n3)ccc21` [Compound 695] were, in that order, 0.0433 µM, 0.42 µM and 9.72.
Turning to `CC(C)S(=O)(=O)c1cccc(C(=O)NCc2cc3nc(-c4cncc(C5CC5)n4)ccc3cn2)c1` [Compound 296], the IC50 was determined as 0.316 µM against BRM (ADP-Glo ATPase assay) and 5 µM at BRG-1 (ADP-Glo ATPase assay). Besides, the “Ratio* (BRG1 IC50 (μM) divided by BRM IC50 (μM))” value at BRM stood at 15.84.
The like results for `CN(C)c1cccc(-c2ccc3cnc(CNC(=O)c4ccc5c(c4)S(=O)(=O)CCOC5)cc3n2)n1` [Compound 303] were, in that order, 0.0123 µM, 0.156 µM and 12.63.
On to `C[C@@H]1CN(c2cccc(-c3ccc4cnc(CNC(=O)c5ccc6c(c5)S(=O)(=O)CCN(C)C6)cc4n3)n2)C[C@H](C)O1` [Compound 51], for which the IC50 against BRM (ADP-Glo ATPase assay) was 0.0349 µM; on BRG-1 (ADP-Glo ATPase assay), 0.2 µM. Further, the “Ratio* (BRG1 IC50 (μM) divided by BRM IC50 (μM))” value on BRM was found to be 5.74.
As for `CCN(C[C@H](C)OC)c1cccc(-c2ccc3cnc(CNC(=O)c4ccc5c(c4)S(=O)(=O)CCOC5)cc3n2)n1` [Compound 345], the IC50 is 0.015 µM on BRM (setting [1]) and 0.251 µM at BRG-1 (setting [1]). In addition, the “Ratio*” value at BRM (ratio of BRG1 IC50 to BRM IC50) is reported as 16.77.
The like results for `COCc1cnc2c(c1)CCCN2c1ccc2cnc(CNC(=O)c3ccc4c(c3)S(=O)(=O)CCOC4)cc2n1` [Compound 447] were, in that order, 0.0221 µM, 0.222 µM and 10.05.
Take `O=C(NCc1cc2nc(N3CCC4(CC4)c4cccnc43)ccc2cn1)c1ccc2c(c1)S(=O)(=O)CCOC2` [Compound 600]: the IC50 on BRM (setting [1]) was found to be 0.0132 µM; at BRG-1 (setting [1]), 0.176 µM. Also, on BRM (ratio of BRG1 IC50 to BRM IC50), the “Ratio*” value came out at 13.32.
Regarding `CC1(c2cccc(-c3ccc4cnc(CNC(=O)c5ccc6c(c5)S(=O)(=O)CCOC6)cc4n3)n2)CC1` [Compound 210], the IC50 on BRM (ADP-Glo ATPase assay) came out at 0.0176 µM; at BRG-1 (ADP-Glo ATPase assay), 0.174 µM. The “Ratio* (BRG1 IC50 (μM) divided by BRM IC50 (μM))” value at BRM is reported as 9.92.
For `C[C@@H]1CN(c2cccc(-c3ccc4cnc(CNC(=O)c5ccc6c(c5)S(=O)(=O)CCC(F)(F)C6)cc4n3)n2)C[C@H](C)O1` [Compound 587], the concentration for half-maximal inhibition (IC50) against BRM (setting [1]) worked out at 0.0112 µM; at BRG-1 (setting [1]), 0.0639 µM. In addition, on BRM (ratio of BRG1 IC50 to BRM IC50), the “Ratio*” value stood at 5.69.
As for `O=C(NCc1cc2nc(-c3cccc(C4CC4)n3)ccc2nn1)c1cc(F)c2c(c1)S(=O)(=O)CCOC2` [Compound 422], the IC50 at BRM (setting [1]) was found to be 0.0109 µM; at BRG-1 (setting [1]), 0.31 µM. Further, the “Ratio*” value at BRM (ratio of BRG1 IC50 to BRM IC50) is 28.45.
The matching figures for `COc1cc(C(F)F)ccc1-c1ccc2cnc(CNC(=O)c3ccc4c(c3)S(=O)(=O)[C@@H](C)COC4)cc2n1` [Compound 320]: 0.012 µM, 0.226 µM and 18.81.
For `CCOc1nc(-c2ccc3cnc(CNC(=O)c4ccc5c(c4)S(=O)(=O)CCOC5)cc3n2)ccc1C` [Compound 501], the IC50 on BRM (setting [1]) amounted to 0.0099 µM; at BRG-1 (setting [1]) it was 0.135 µM. In addition, the “Ratio*” value on BRM (ratio of BRG1 IC50 to BRM IC50) is given as 13.59.
Regarding `O=C(NCc1cc2nc(N3CCCc4ccc(N5CCC5)nc43)ccc2cn1)c1ccc2c(c1)S(=O)(=O)CCOC2` [Compound 566], the results for the IC50 on BRM (setting [1]) and on BRG-1 (setting [1]) were 0.0326 µM and 0.679 µM, respectively. Also, the “Ratio*” value on BRM (ratio of BRG1 IC50 to BRM IC50) is 20.83.
As to `O=C(NCc1cc2nc(N3CCOc4cc(C5CCC5)cnc43)ccc2cn1)c1ccc2c(c1)S(=O)(=O)CCOC2` [Compound 753], the IC50 stood at 0.0142 µM against BRM (ADP-Glo ATPase assay) and 0.203 µM at BRG-1 (ADP-Glo ATPase assay). In addition, the “Ratio*” value at BRM (ratio BRG1 IC50 / BRM IC50) amounted to 14.28.
Turning to `Cc1cnc2c(n1)CCCN2c1ccc2cnc(CNC(=O)c3ccc4c(c3)S(=O)(=O)CCOC4)cc2n1` [Compound 440], the IC50 is 0.0323 µM on BRM (setting [1]) and 0.453 µM at BRG-1 (setting [1]). For the same compound, the “Ratio*” value at BRM (ratio of BRG1 IC50 to BRM IC50) came out at 14.01.
In the case of `CO[C@@H]1CN(c2cccc(-c3ccc4cnc(CNC(=O)c5ccc6c(c5)S(=O)(=O)CCOC6)cc4n3)n2)C[C@H]1F` [Compound 340], the IC50 was 0.0222 µM on BRM (setting [1]) and 0.309 µM on BRG-1 (setting [1]). Besides, the “Ratio*” value at BRM (ratio of BRG1 IC50 to BRM IC50) is 13.96.
The like results for `CCOc1cccc(-c2ccc3cnc(CNC(=O)c4cc(F)c5c(c4)S(=O)(=O)[C@@H](C)COC5)cc3n2)n1` [Compound 453] were, in that order, 0.0274 µM, 0.595 µM and 21.75.
The like results for `C[C@H](C1COC1)N(C)c1cccc(-c2ccc3cnc(CNC(=O)c4ccc5c(c4)S(=O)(=O)CCOC5)cc3n2)n1` [Compound 470] were, in that order, 0.0748 µM, 0.954 µM and 12.76.
Turning to `CS(=O)(=O)c1cc(C(=O)NCc2cc3nc(-c4cccc(N5CC[C@@H]6COC[C@@H]6C5)n4)ccc3cn2)ccc1C(F)F` [Compound 96], the figures for the IC50 against BRM (ADP-Glo ATPase assay) and at BRG-1 (ADP-Glo ATPase assay) were 0.0497 µM and 0.7 µM, respectively. Moreover, at BRM, the “Ratio* (BRG1 IC50 (μM) divided by BRM IC50 (μM))” value is on record as 14.09.
Turning to `Cc1cc2c(-c3ccc4cnc(CNC(=O)c5ccc6c(c5)S(=O)(=O)CCOC6)cc4n3)cccc2n1C` [Compound 130], the IC50 against BRM (ADP-Glo ATPase assay) was determined as 0.0107 µM; at BRG-1 (ADP-Glo ATPase assay), 0.104 µM. The “Ratio* (BRG1 IC50 (μM) divided by BRM IC50 (μM))” value at BRM was 9.77.
Turning to `O=C(NCc1cc2nc(N3CCCc4ccc(Cl)nc43)ccc2cn1)c1ccc2c(c1)S(=O)(=O)CCOC2` [Compound 513], the IC50 was 0.0169 µM against BRM (setting [1]) and 0.164 µM on BRG-1 (setting [1]). Further, the “Ratio*” value on BRM (ratio of BRG1 IC50 to BRM IC50) was found to be 9.70.
The matching figures for `COc1cc(CC(F)F)ccc1-c1ccc2cnc(CNC(=O)c3ccc4c(c3)S(=O)(=O)CCOC4)cc2n1` [Compound 316]: 0.0471 µM, 0.495 µM and 10.49.
Take `O=C(NCc1cc2nc(-c3cncc(C(F)(F)F)n3)ccc2cn1)c1ccc2c(c1)S(=O)(=O)CCOC2` [Compound 209]: the IC50 turned out to be 0.498 µM at BRM (ADP-Glo ATPase assay) and 3.62 µM on BRG-1 (ADP-Glo ATPase assay). Besides, on BRM, the “Ratio* (BRG1 IC50 (μM) divided by BRM IC50 (μM))” value is reported as 7.27.
The like results for `COCc1c(Cl)cc(C(=O)NCc2cc3nc(-c4cccc(N5C[C@@H](C)O[C@@H](C)C5)n4)ccc3cn2)cc1S(C)(=O)=O` [Compound 114] were, in that order, 0.0708 µM, 1.61 µM and 22.76.
Turning to `O=C(NCc1cc2nc(N3CCOc4ccc(C5CC(F)(F)C5)nc43)ccc2cn1)c1ccc2c(c1)S(=O)(=O)CCOC2` [Compound 828], the IC50 at BRM (ADP-Glo ATPase assay) was found to be 0.0451 µM; at BRG-1 (ADP-Glo ATPase assay), 2.37 µM. Also, the “Ratio*” value at BRM (ratio BRG1 IC50 / BRM IC50) is reported as 52.48.
The matching figures for `O=C(NCc1cc2nc(N3CCOc4cc(F)cnc43)ccc2cn1)c1ccc2c(c1)S(=O)(=O)CCOC2` [Compound 737]: 0.0104 µM, 0.227 µM and 21.91.
The matching figures for `C[C@@H]1CN(c2ccnc(-c3ccc4cnc(CNC(=O)c5ccc6c(c5)S(=O)(=O)CCOC6)cc4c3)n2)C[C@H](C)O1` [Compound 707]: 0.0546 µM, 0.264 µM and 4.84.
`CO[C@@H]1CCS(=O)(=O)c2cc(C(=O)NCc3cc4nc(-c5cccc(N6C[C@@H](C)O[C@@H](C)C6)n5)ccc4cn3)ccc2C1` [Compound 446]: the IC50 was found to be 0.0112 µM on BRM (setting [1]) and 0.0317 µM on BRG-1 (setting [1]). Also, at BRM (ratio of BRG1 IC50 to BRM IC50), the “Ratio*” value came to 2.83.

The values above are taken from US20230416248A1, “COMPOUNDS AND USES THEREOF” (Foghorn Therapeutics Inc., priority 2020, published 2023).
